Assay results reported in US8247540B2, “Caged nucleotides and oligonucleotides and their application” (priority 2008, dated 2012).
“And” between values parts separate entries of the source, which are not always exact repeats. Equal values may be shown once. Strand notation (5' to 3'): a small letter for the sugar, then the base; units joined by * are phosphorothioate-linked, units joined directly phosphodiester-linked; [ ] holds rarer units or linkages, { } end groups; capitals alone tell only the bases. [cagedT] = caged thymidine: thymidine bearing a photolabile caging group, removed by UV irradiation at 365 nm; [cageT] = thymidine carrying a photolabile caging group (caged thymidine), removed by 365 nm UV light; [NPOM-T] = NPOM-caged (photocaged) thymidine; d = 2'-deoxy (DNA)

How the values were obtained:
[1] = tested on: Renilla luciferase reporter gene; experiment: Renilla luciferase antisense assay in NIH 3T3 cells (dual reporter); type: cell-based, mouse; conditions: for antisense activity / effect on the luciferase signal: NIH 3T3, without UV irradiation
Source text: The error bars represent the standard deviation of three independent experiments.
These antisense oligomers were transfected into mouse fibroblast cells (NIH 3T3) together with a dual reporter system encoding Renilla luciferase and firefly luciferase as a transfection control.

[2] = tested on: complementary RNA sequence (5′ UCCAGAACAAAGGAAACG 3′); experiment: Melting temperature of PS DNA/RNA hybrids before and after irradiation; type: binding; conditions: PS DNA/RNA hybrid; for Mp/° C. +UV: after irradiation (5 min, 365 nm, 23 W); for Mp/° C. −UV: before irradiation
Source text: The capacity of the three and four caging groups to inhibit hybridization of the caged PS DNA oligomer to the complementary RNA sequence (5′ UCCAGAACAAAGGAAACG 3′) [SEQ ID NO 14] was examined. Hybridization was monitored on a BioRad MyiQ RT-PCR thermocycler by conducting a sequence of 3 heating and cooling cycles. […] Complete hybridization was restored upon a 5-minute irradiation at 365 nm for both caged analogs (Table 2).

[3] = Stability of the caging group to PCR conditions; type: physicochemical; conditions: elevated temperatures required for PCR
[4] = tested on: chordin; experiment: Light-regulation of morpholino activity in zebrafish embryos; type: in vivo
Experimental: Percentages represent the frequency of the pictured phenotype in live fish. A) Non-injected embryo (100%). B) Injection of the non-caged Chordin-0 MO (100%). C) Injection of the caged MO (Chordin-4) −UV irradiation (80%). D) Injection of the caged MO (Chordin-4) +UV irradiation for 60 sec at 365 nm (100%). Identical amounts were injected in each experiment. The expanded blood island (arrows) is indicative of the chordin phenotype.
Injections with the non-caged and caged morpholino oligomers containing four […] monomers targeting chordin were conducted. Zebrafish embryos were injected into the yolk sac at the 1-4 cell stage with ˜1 nl of 500 μm caged Chordin-4 morpholino (5′ AT*CCACAGCAGCCCCT*CCAT*CAT*CC 3′ [SEQ ID NO 2]; T* denotes the caged thymidine; containing 0.15% phenol red to verify injection). Immediately after injection, half of the injected embryos were exposed to 365 nm UV light for 60 sec. The other half was protected from light. Half of the uninjected control embryos were also exposed to 365 nm UV for 60 sec, and no phenotypic differences between ±UV were detected. All embryos were grown at 28° C. for about 28 hours before their phenotypes were photographed. The chordin gene induces dorsalization of the developing embryo and injection of an anti-chordin MO induces a phenotype resembling chordin null-mutant embryos by displaying abnormally shaped somites, an expanded blood island (see arrows in FIG. 5), an abnormal tail fin, and a reduced head (see FIG. 5B compared to the non-injected fish shown in FIG. 5A).

[5] = tested on: DNA template (plasmid DNA); experiment: Light-triggered polymerase chain reaction (activation and deactivation); type: biochemical
Experimental: The DNA template (1.5 ng/μL of plasmid DNA) was incubated in the presence of P5 and a reverse primer (5′[…]-GT 3′, [SEQ ID NO 11] 1 μM each; the same reverse primer was used in all PCRs) with nucleotide triphosphates (dNTPs, 0.3 mM each), in Taq Reaction Buffer (10 mM Tris-HCl, 50 mM. KCl, 1.5 mM MgCl2, pH 8.3) and water. Taq DNA Polymerase (3 units/μL) was added to initiate the reaction. Prior to placement in a PCR thermocycler (Eppendor Mastercycler) the reaction was either irradiated for 8 minutes at 365 nm, or maintained in the dark. An initial denaturation at 95° C. was performed, followed by 40 cycles of 95° C. (30 sec), 50° C. (30 sec), and 72° C. (1 min), with a final extension at 72° C. (2 min). The reactions were conducted in triplicate, visualized on a 1% agarose gel, and quantitated (all DNA was quantified by band integration in ethidium bromide stained agarose gels using Image Quant 5.2). […] This experiment represented the first example of a light-activated PCR. While we initially employed irradiation prior to the thermal cycling, temporal control was also achieved by initiating the reaction through irradiation at a specific timepoint. Here, an identical reaction with UV irradiating at cycle 15 was conducted. Prior to irradiation, no PCR product can be detected in reactions conducted with the caged primer P5. In contrast, the non-caged primer P1 lead to the expected exponential amplification.
After achieving photochemical control of the activation of PCR at a specific time point, the possibility to switch-off PCR activity via light irradiation was examined. This was accomplished by designing a self-complementary primer which was predisposed to form a hairpin, rather than act as a PCR primer. By installing caging groups on the complementary portion of this sequence it was possible to block self-hybridization, which enabled the polymerization reaction. The PCR was then stopped by removing the photoactive groups, leading to hairpin formation and primer deactivation (FIG. 7). In order to achieve photochemical deactivation, an appropriate hairpin primer P8 was designed (5′ […] 3′) [SEQ ID NO. 12], and a photocaged analog P9 was synthesized (5′ […] 3′) [SEQ ID NO. 13]. […] However, in the absence of light irradiation the caged hairpin primer P9 was successful in acting as a primer, yielding 137 ng of PCR product (not shown).
Light-regulatory mechanisms were also employed in a temporally controlled fashion by irradiating the caged primer after 10 cycles of PCR. The non-caged primer P8 was used as a control, as it formed a hairpin immediately, blocking Taq DNA polymerase and inhibiting amplification. Because the caged primer P9 was able to bind to the DNA template, amplification occurred. […] At the same point, amplification continued in the non-irradiated reaction with P9.

[6] = tested on: non-caged complement (5′ CGAACCTGGTCGAAATCAG 3′); experiment: Melting temperatures of caged and non-caged PCR primers with complementary DNA; type: binding; conditions: for Mp/° C. +UV: after 8 minutes irradiation at 365 nm; for Mp/° C. −UV: before UV, 1 μM primer and complementary DNA; for melting temperature depression: single caging group, versus P1, −UV
Experimental: The DNA oligomers P1-P7, consisting of 19 nucleotides, a typical length for PCR primers, and containing 0-4 caged thymidines have been synthesized (Table 1). These primers were than analyzed for their annealing and melting properties in the presence of a complementary oligonucleotide.
Melting curves were measured on a BioRad MyiQ RT-PCR thermocycler by conducting a sequence of 3 heating and cooling cycles (1 μM of both primer and complementary DNA with 12.5 μL iQ SYBR Green Supermix to a total volume of 25 μL; 40° C. to 80° C. with a 0.5° C./min ramp). The melting temperatures were determined to be 65.3° C. (P1), 62.1° C. (P2), 54.3° C. (P3), 55.5° C. (P4), and 50.0° C. (P6). […] This effect was less pronounced in P2, perhaps due to the caged T's close proximity to the 5′ terminus, which lead to a lower level of interference with the hybridization of neighboring nucleotides. With the incorporation of additional caging groups in P4-P7, melting temperatures decreased further. However, addition of a single caged thymidine close to the 5′ terminus of P3 had no effect in P4. […] In order to ensure a complete removal of the photolabile group, each primer was irradiated for 8 minutes at 365 nm, and then analyzed in the same melting temperature assay.

[7] = activation experiment, no UV irradiation, 40 cycles

Molecule: 3-Caged: phosphorothioate DNA 5′ CGTTT*CCTTT*GTTCT*GGA 3′, T* NPOM-caged thymidine, SEQ ID NO 17 (DNA dC*dG*dT*dT*d[NPOM-T]*dC*dC*dT*dT*d[NPOM-T]*dG*dT*dT*dC*d[NPOM-T]*dG*dG*dA)
- antisense activity / effect on the luciferase signal [1]: completely inhibited the antisense activity
- Mp/° C. +UV [2]: 39.2 ± 0.6 °C

Molecule: 5. Control: control phosphorothioate DNA 5′ TCCAGAACAAAGGAAACG 3′, SEQ ID NO 15 (DNA dT*dC*dC*dA*dG*dA*dA*dC*dA*dA*dA*dG*dG*dA*dA*dA*dC*dG)
- antisense activity / effect on the luciferase signal [1]: no effect on the luciferase signal
- Mp/° C. −UV [2]: No hybridization was detected

Molecule: 7. Non-caged: non-caged phosphorothioate DNA targeting Renilla luciferase, 5′ CGTTTCCTTTGTTCTGGA 3′, SEQ ID NO 16
- down-regulation of the Renilla luciferase signal ([1]; NIH 3T3, no UV): 70%
- Mp/° C. +UV [2]: 39.3 ± 0.8 °C
- Mp/° C. −UV [2]: 39.5 ± 0.5 °C
- Mp/° C. −UV ([2]; listed as non-caged PS DNA): approximately 39 °C

Molecule: Cc1cn(C2CC(O)C(CO)O2)c(=O)n(COC(C)c2cc3c(cc2[N+](=O)[O-])OCO3)c1=O (stereo not drawn) [monomeric caged thymidine, Caged thymidine]
- stability of the caging group to PCR conditions [3]: unaffected by the elevated temperatures

Molecule: Chordin-4: caged morpholino 5′ AT*CCACAGCAGCCCCT*CCAT*CAT*CC 3′, T* caged thymidine, four 21 monomers (DNA ATCCACAGCAGCCCCTCCATCATCC; morpholino, caged thymidines, chemistry not fully specified)
- frequency of the pictured phenotype in live fish ([4]; +UV irradiation for 60 sec at 365 nm, chordin phenotype pictured): 100%
- morpholino antisense activity (phenotype) ([4]; protected from light, about 28 hours at 28° C.): completely inactive
- frequency of the pictured phenotype in live fish ([4]; −UV irradiation, wild-type phenotype pictured): 80%

Molecule: P1: non-caged 19 nucleotide PCR primer 5′ CTGATTTCGACCAGGTTCG 3′, SEQ ID NO 3 (DNA, backbone not given here) [reference compound]
- PCR product [5, 7]: approximately 140 ng
- Mp/° C. +UV [6]: 65.0 ± 0.8 °C
- Mp/° C. −UV [6]: 65.3 °C and 65.3 ± 0.3 °C

Molecule: P2: primer 5′ CTGATTTCGACCAGGTTCG 3′ with a single caged thymidine close to the 5′ terminus, SEQ ID NO 4 (DNA, [cageT] at 2, backbone not given here)
- Mp/° C. +UV [6]: 64.1 ± 0.2 °C
- Mp/° C. −UV [6]: 62.1 °C and 62.1 ± 0.7 °C
- melting temperature depression [6]: 3.2 °C

Molecule: P3: primer 5′ CTGATTTCGACCAGGTTCG 3′ with a single caged thymidine, SEQ ID NO 5 (DNA, [cageT] at 7, backbone not given here)
- Mp/° C. +UV [6]: 64.1 ± 0.8 °C
- Mp/° C. −UV [6]: 54.3 °C and 54.3 ± 1.1 °C
- melting temperature depression [6]: 11.0 °C

Molecule: P4: P3 with an additional caged thymidine close to the 5′ terminus, SEQ ID NO 6 (DNA CTGATTTCGACCAGGTTCG; DNA, [cageT] at 2, 7, backbone not given here)
- Mp/° C. +UV [6]: 63.8 ± 0.3 °C
- Mp/° C. −UV [6]: 55.5 °C and 55.5 ± 0.5 °C

Molecule: P5: primer with three caging groups distributed throughout the DNA oligomer, SEQ ID NO 7 (DNA CTGATTTCGACCAGGTTCG; DNA, [cageT] at 2, 7, 17, backbone not given here)
- DNA amplification ([5]; UV irradiation at cycle 15): increases exponentially
- PCR product ([5]; activation experiment, irradiated 8 minutes at 365 nm before cycling, 40 cycles): comparable amounts of PCR product as found in the reaction with P1
- PCR product [5, 7]: only trace amounts
- Mp/° C. +UV [6]: 64.2 ± 0.2 °C
- Mp/° C. −UV [6]: No melting temperatures could be measured

Molecule: P6: primer with a cluster of three caged thymidines, SEQ ID NO 8 (DNA CTGATTTCGACCAGGTTCG; DNA, [cageT] at 5, 6, 7, backbone not given here)
- Mp/° C. +UV [6]: 64.5 ± 0.5 °C
- Mp/° C. −UV [6]: 50.0 °C and 50.0 ± 1.0 °C

Molecule: P7: caged primer 5′ CTGATTTCGACCAGGTTCG 3′, SEQ ID NO 9, probably four caged thymidines (DNA, [cagedT] at 2, 5, 7, 17, backbone not given here; PCR primer)
- Mp/° C. +UV [6]: 64.2 ± 0.3 °C
- Mp/° C. −UV [6]: No melting temperatures could be measured

Molecule: P8: non-caged hairpin primer 5′ GGTCAGTAAATTGTTTTTCAATTTACTGACCG 3′, SEQ ID NO 12 (hairpin primer, further chemistry not given here) [reference compound]
- PCR product ([5]; deactivation (hairpin primer) experiment, no light irradiation, 25 cycles): very little PCR product
